Laboratory results taken from ChEMBL document CHEMBL1201862, “PubChem BioAssay data set” (2004).
Each block holds one molecule with its values, some of them ahead of it. Active and inactive are the calls of the source.

Tests used:
Cytochrome P450 2C9 = Cytochrome P450 2C9 (Homo sapiens, UniProt P11712); settings: Potency
[1] = molecular target: Glyceraldehyde-3-phosphate dehydrogenase (Homo sapiens, UniProt P04406)
[2] = molecular target: T1, Alkaline phosphatase, tissue-nonspecific isozyme (Homo sapiens, UniProt P05186); experiment: human TNAP enzyme inhibitors, SAR follow-up, biochemical, luminescent, dose response (AID 1056)
T1 sequence (P05186 whole entry): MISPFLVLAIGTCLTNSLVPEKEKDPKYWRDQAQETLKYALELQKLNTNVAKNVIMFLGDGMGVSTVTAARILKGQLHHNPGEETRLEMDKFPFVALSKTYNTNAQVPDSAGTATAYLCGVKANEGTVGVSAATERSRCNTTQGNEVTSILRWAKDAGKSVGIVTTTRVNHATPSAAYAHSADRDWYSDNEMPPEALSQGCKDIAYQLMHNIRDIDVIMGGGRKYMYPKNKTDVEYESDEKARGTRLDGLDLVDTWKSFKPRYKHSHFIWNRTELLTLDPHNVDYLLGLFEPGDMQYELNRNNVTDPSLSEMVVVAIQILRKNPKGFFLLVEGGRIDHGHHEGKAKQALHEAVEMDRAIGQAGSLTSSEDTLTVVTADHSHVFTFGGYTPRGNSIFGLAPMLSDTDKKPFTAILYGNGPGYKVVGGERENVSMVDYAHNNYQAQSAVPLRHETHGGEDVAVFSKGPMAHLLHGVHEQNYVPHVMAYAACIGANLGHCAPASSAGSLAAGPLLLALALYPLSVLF

Beta-galactosidase = Beta-galactosidase (Escherichia coli, UniProt Q8VNN2); experiment: beta-galactosidase enzyme inhibitors and activators, dose response, artefact control for CCR6 antagonist project, biochemical, E. coli enzyme, set 3 (AID 504712); format: functional
[3] = molecular target: T2, Polyadenylate-binding protein 1 (Homo sapiens, UniProt P11940); experiment: PABP1 MLLE–PAM2 interaction inhibitors, dose response, miRNA deadenylation inhibitor project, biochemical, fluorescence polarization, Cy5-PAM2 peptide, secondary (AID 602260); format: functional; settings: read-out: IC50_Mean
T2 sequence (P11940 whole entry): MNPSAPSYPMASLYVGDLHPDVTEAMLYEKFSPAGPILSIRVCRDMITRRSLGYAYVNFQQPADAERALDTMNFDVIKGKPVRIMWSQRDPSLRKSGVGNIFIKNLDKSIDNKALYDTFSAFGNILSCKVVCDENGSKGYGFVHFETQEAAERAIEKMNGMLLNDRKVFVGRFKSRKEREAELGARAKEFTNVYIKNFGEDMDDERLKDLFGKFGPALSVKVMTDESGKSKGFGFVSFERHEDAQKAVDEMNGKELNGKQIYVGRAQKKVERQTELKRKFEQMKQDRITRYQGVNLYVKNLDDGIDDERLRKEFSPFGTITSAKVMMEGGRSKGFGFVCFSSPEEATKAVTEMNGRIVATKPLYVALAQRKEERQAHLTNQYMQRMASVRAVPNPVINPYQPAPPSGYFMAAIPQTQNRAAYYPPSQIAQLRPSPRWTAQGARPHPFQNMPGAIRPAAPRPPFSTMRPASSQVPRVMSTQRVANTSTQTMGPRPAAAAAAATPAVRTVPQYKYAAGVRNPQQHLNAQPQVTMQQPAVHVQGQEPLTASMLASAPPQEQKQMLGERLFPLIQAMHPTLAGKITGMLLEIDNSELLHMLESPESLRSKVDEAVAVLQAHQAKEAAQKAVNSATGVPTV

[4] = molecular target: T2, Polyadenylate-binding protein 1; experiment: PABP1 MLLE–PAM2 binding inhibitor potency, dose response, biochemical, fluorescence polarization, FITC-PAM2 peptide (AID 602259); format: functional; settings: read-out: IC50_Mean
[5] = HEp-2 cell cytotoxicity, dose response, cytotoxicity control for RSV inhibitor project, HTS (AID 2410); format: functional; settings: human respiratory syncytial virus
Estrogen receptor = molecular target: T3, Estrogen receptor (Homo sapiens, UniProt P03372);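 note: potency for inhibiting coactivator peptide recruitment to the receptor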
T3 sequence (P03372 whole entry): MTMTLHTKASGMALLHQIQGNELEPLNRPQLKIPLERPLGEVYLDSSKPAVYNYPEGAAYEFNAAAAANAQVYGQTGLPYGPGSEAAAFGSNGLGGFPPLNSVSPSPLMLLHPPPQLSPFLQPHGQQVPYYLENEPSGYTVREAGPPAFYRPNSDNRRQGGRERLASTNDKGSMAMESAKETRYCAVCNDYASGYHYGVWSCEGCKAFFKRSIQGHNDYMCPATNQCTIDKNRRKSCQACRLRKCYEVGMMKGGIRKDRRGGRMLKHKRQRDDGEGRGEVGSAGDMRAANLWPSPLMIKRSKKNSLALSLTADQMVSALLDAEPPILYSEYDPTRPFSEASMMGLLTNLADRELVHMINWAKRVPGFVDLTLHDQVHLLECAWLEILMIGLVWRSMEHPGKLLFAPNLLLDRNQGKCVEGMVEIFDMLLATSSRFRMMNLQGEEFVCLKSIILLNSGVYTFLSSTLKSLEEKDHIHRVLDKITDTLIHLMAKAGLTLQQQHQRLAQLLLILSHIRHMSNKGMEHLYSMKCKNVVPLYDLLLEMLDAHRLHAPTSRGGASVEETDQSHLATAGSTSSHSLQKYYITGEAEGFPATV

[6] = inhibitors of intracellular T. cruzi replication, confirmation, NIH3T3 host cells, beta-gal luminescence (AID 2044); format: functional, cell-based;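 note: intracellular parasites grown in NIH/3T3 mouse fibroblasts as host cells; luminescent beta-galactosidase reporter signal from transgenic T. cruzi replicating inside host cells; inhibitors lower the luminescence signal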
[7] = growth suppression of PTEN-null colon cells, dose response, cell-based, HCT116 PTEN knockout (AID 1047); format: functional;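 note: HCT116 colon tumor cells with PTEN knocked out; cells exposed to compound for 60 hours before readout; potency for loss of cell viability measured by luminescence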
[8] = cytotoxicity toward NIH3T3 fibroblasts, dose response, counter-screen, cell-based, ATP luminescence, mouse fibroblasts (AID 2010); format: functional;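 note: cells exposed to compound for about 90 hours before reading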
[9] = growth suppression of beta-catenin-knockout colon cells, dose response, cell-based, HCT116, human colon tumor (AID 1045); format: functional;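 note: HCT116 colon tumor cells with beta catenin knocked out; cells exposed to compound for 60 hours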
Bcl-2-related protein A1 = molecular target: T4, Bcl-2-related protein A1 (Mus musculus, UniProt Q07440); format: functional;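 note: confirmatory dose–response counterscreen on Bfl-1, used to check hits from a UBC13 polyubiquitin inhibitor campaign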
T4 sequence (Q07440 whole entry): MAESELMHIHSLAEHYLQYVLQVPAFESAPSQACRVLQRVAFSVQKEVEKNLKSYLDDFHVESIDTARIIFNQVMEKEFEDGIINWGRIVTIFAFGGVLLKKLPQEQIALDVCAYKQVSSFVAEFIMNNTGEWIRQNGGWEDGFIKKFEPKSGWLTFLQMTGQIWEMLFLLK

[10] = molecular target: T5, Ubiquitin-conjugating enzyme E2 N (Homo sapiens, UniProt P61088); format: functional
T5 sequence (P61088 whole entry): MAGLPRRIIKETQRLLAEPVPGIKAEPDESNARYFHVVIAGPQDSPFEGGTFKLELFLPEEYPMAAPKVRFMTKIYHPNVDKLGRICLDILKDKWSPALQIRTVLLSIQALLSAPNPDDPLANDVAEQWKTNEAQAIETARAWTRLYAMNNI

[11] = molecular target: T6, Short transient receptor potential channel 4 (Mus musculus, UniProt Q9QUQ5); experiment: mouse TRPC4 channel activators, dose response, cell-based, HEK293 TRPC4/mu-opioid, Fluo-4 calcium (AID 434937); format: functional
T6 sequence (Q9QUQ5 whole entry): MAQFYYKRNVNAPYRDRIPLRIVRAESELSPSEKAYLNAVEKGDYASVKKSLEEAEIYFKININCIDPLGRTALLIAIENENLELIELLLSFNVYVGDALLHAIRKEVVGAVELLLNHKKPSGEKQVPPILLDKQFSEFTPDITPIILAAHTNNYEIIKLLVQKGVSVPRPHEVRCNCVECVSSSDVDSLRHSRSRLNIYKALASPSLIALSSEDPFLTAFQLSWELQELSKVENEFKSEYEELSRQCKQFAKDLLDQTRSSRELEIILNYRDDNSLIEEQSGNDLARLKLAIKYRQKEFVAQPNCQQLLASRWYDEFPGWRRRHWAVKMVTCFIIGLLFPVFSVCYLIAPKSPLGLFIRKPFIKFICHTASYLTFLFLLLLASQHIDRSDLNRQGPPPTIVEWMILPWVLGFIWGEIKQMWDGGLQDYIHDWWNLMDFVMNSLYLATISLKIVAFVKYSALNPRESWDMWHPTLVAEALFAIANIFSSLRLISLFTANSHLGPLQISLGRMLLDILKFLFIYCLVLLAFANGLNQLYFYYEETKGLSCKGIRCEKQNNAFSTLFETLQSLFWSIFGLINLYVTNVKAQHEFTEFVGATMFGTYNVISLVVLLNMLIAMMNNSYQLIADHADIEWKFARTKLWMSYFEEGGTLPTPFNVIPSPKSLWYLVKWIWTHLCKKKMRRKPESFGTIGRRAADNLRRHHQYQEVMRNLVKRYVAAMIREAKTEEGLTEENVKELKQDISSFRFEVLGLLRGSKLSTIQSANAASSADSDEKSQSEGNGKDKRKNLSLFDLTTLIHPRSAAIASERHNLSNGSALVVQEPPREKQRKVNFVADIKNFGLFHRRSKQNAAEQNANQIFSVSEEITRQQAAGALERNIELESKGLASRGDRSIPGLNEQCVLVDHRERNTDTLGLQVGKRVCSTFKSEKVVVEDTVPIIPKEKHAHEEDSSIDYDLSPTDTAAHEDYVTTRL

[12] = molecular target: T5, Ubiquitin-conjugating enzyme E2 N; format: functional; remark: listed apart in the source
[13] = molecular target: T7, Voltage-gated N-type calcium channel alpha-1B subunit/Amyloid beta A4 precursor protein-binding family A member 1 (Homo sapiens, UniProt Q00975+Q02410); format: protein assay
T7 sequence (Q00975 whole entry): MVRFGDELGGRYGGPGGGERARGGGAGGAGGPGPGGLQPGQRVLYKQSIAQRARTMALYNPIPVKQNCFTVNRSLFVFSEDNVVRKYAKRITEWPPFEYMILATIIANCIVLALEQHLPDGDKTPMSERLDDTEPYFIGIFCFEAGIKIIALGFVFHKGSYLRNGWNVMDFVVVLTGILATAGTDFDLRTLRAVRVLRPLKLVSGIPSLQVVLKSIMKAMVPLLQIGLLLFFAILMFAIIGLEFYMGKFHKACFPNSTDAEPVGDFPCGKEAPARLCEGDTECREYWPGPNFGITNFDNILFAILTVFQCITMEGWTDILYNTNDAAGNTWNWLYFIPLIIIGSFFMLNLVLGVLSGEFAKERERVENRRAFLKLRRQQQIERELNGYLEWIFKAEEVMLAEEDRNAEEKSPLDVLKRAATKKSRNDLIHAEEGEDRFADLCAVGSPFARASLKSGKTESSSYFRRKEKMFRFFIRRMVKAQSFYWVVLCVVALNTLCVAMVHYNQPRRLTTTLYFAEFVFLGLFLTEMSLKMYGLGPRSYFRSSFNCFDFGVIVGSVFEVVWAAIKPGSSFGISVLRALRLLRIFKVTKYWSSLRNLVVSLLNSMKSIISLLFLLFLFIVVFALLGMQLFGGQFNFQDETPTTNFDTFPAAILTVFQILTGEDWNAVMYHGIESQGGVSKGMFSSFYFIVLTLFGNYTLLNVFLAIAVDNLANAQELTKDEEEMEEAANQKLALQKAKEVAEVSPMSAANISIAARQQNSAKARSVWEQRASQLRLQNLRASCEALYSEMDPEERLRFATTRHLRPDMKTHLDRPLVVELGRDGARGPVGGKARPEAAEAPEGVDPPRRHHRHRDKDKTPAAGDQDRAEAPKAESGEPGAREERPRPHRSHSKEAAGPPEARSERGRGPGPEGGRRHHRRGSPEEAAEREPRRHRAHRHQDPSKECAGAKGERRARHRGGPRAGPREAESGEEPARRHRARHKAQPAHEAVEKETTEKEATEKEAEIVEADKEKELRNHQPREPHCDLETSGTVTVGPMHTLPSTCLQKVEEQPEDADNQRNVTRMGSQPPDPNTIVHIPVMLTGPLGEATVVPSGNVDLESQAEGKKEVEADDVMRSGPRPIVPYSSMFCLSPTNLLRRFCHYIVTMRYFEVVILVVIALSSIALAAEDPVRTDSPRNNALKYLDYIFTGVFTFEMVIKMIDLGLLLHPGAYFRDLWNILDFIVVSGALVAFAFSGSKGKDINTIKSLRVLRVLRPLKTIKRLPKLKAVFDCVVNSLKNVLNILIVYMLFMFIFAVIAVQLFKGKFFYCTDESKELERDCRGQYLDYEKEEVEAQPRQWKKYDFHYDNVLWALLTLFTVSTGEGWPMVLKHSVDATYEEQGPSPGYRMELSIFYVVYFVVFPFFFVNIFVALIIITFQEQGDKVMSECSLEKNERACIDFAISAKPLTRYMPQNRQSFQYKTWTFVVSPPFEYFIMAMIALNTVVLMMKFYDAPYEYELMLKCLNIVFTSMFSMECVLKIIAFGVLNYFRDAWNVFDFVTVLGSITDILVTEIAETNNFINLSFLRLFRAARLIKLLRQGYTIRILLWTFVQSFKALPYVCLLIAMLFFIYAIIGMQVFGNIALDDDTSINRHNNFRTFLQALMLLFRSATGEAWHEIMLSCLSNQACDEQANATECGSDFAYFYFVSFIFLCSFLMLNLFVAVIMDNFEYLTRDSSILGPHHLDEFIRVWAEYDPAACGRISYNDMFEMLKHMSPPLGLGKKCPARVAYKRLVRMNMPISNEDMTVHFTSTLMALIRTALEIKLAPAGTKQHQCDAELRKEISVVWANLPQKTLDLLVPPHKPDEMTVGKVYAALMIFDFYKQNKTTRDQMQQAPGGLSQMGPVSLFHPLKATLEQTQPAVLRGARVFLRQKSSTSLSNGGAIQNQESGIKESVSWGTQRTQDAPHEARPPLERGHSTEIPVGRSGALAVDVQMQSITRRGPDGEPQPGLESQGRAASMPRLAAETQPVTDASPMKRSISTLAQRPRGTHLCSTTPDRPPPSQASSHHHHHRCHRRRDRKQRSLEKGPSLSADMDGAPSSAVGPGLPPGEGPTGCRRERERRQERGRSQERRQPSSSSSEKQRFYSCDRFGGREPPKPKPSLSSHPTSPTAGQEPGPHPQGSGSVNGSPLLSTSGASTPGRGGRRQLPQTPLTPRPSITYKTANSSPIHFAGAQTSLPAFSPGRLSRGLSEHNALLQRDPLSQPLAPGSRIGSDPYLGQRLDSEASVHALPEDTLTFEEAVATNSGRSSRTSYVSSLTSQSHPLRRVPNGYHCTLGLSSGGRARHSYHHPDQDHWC
T7 sequence (Q02410 whole entry): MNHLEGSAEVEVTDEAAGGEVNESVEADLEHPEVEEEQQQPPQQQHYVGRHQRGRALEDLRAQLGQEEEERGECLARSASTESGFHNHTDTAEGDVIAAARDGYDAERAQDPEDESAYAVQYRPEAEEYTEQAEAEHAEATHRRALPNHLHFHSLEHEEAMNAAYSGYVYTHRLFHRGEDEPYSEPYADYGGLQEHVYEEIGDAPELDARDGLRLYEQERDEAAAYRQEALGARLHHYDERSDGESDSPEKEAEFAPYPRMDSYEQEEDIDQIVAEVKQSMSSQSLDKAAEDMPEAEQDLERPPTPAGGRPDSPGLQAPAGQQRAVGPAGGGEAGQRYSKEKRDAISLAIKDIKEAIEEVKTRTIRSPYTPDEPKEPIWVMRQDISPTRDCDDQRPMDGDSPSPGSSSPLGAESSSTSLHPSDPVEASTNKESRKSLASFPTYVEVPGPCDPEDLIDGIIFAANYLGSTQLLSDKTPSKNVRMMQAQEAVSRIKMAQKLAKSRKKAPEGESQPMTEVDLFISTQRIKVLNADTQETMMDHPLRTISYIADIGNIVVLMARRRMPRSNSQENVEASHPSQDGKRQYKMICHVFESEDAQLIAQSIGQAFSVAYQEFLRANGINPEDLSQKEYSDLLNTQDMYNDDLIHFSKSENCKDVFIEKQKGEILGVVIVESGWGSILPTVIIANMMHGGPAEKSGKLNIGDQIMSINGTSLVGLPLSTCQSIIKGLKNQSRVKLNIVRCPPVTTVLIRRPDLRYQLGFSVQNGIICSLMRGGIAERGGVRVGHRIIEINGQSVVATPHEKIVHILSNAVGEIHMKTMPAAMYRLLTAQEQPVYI

[14] = molecular target: T7, Voltage-gated N-type calcium channel alpha-1B subunit/Amyloid beta A4 precursor protein-binding family A member 1; format: protein assay; remark: listed apart in the source

Chain of Glyceraldehyde-3-phosphate dehydrogenase (P04406 whole entry): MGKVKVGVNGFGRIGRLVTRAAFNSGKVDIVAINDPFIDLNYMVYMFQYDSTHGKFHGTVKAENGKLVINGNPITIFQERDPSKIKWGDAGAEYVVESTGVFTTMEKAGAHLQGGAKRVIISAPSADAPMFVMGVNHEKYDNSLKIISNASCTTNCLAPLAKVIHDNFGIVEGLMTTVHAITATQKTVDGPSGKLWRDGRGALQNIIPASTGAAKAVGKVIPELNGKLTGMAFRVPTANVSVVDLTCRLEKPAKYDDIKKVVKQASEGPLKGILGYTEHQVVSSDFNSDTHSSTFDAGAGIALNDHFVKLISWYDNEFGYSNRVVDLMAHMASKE
Chain of Cytochrome P450 2C9 (P11712 whole entry): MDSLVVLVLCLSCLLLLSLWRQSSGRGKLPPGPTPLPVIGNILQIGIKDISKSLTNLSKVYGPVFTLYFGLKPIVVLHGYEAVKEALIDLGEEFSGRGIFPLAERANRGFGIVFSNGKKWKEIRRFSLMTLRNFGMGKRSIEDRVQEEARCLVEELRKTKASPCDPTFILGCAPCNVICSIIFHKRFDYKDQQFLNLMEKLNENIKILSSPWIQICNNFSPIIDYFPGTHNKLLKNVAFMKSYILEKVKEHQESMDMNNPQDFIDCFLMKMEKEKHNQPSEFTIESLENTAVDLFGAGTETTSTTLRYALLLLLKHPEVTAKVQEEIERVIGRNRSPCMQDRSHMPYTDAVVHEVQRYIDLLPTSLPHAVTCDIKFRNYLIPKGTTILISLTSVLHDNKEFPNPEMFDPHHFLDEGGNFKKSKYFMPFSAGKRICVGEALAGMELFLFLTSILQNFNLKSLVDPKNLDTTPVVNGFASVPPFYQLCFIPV

Compound: COc1ccc(/C=C/C2=CC3(C)CC2(C)C(c2ccc(OC)cc2)CC3=O)cc1 (centres undefined)
AC50 (Cytochrome P450 2C9): 7.94 µM (inconclusive)

Compound: O=C1C2CCCCC2C(=O)N1c1nc(CCc2ccccc2)n[nH]1 (centres undefined)
IC50 [1]: > 100 µM (not active)
IC50 [2]: > 100 µM (inactive)

Compound: O=S(=O)(c1ccccc1F)N1CCC(c2nc(O)c3nnn(Cc4ccc5c(c4)OCCO5)c3n2)CC1
CC50 [5]: > 50 µM (active)
IC50 (cells): 45.3 µM (active)

Compound: COc1ccc(-c2cc(C#N)nc(N3CCNCC3)n2)cc1
EC50 [6]: 3.69 µM (active)
EC50 [7]: 15.2 µM (active)
EC50 [8]: > 60 µM (not active)
EC50 [9]: 9.93 µM (active)
IC50 (Bcl-2-related protein A1): > 20 µM (inactive)
IC50 [10]: 15.5 µM (active)
EC50 [11]: 1.88 µM (active)
IC50 [12]: 15.9 µM (active)

Compound: CSc1ccc(S(=O)(=O)Nc2cccc(F)c2)cc1
IC50 (Estrogen receptor): 23.7 µM (active)

Compound: Cc1ccc(-c2nc3cccnc3s2)cc1NS(=O)(=O)c1cccs1
CC50 [5]: 20.4 µM (active)
IC50 (cells): 8.63 µM (active)

Continued, values first:

IC50 (Beta-galactosidase): > 66.6 µM (inactive)
IC50 [3]: > 66 µM (inactive)
IC50 [4]: > 66 µM (inactive)
Compound: CCCCn1c(N)c(C(=S)NC(=O)CC(C)(C)C)c(=O)n(C)c1=O

IC50 (Estrogen receptor): > 50 µM (not active)
Compound: Cc1ccccc1Nc1nc(N)nc(CSc2nc3ccccc3c(=O)n2C)n1

IC50 (Bcl-2-related protein A1): > 20 µM (inactive)
IC50 [10]: 14.5 µM (active)
IC50 [12]: 12.5 µM (active)
Compound: CC(C)CC(C(=O)NC(C)(C)C)N(Cc1ccccc1Cl)C(=O)c1snc(C(N)=O)c1N (centres undefined)

IC50 [13]: 28.4 µM (active)
IC50 [14]: > 50 µM (inactive)
Compound: CCOC(=O)N1CCN(C(=O)CCN2C(=O)/C(=C\c3cccc(OC)c3)SC2=S)CC1

IC50 [1]: > 10 µM (inconclusive)
IC50 [2]: 0.12 µM (active)
Compound: NNC(=O)c1cc(-c2ccc(F)cc2F)[nH]n1

IC50 [13]: 7.74 µM (active)
IC50 [14]: > 50 µM (inactive)
Compound: N#C/C(=C\c1ccc(OCCN2CCOCC2)cc1)C(=O)Nc1ccc(S(N)(=O)=O)cc1
